Assay results published in patent US20260256922A1, “PRODRUGS USEFUL FOR REDUCING ANTHRACYCLINE CARDIOTOXICITY” (WAKE FOREST UNIVERSITY HEALTH SCIENCES, priority 2022, published 2026).

Experiments:
Nrf2 = Nrf2 and HO-1 immunoblots in H9C2 cells; assay type: cell-based, rat; details: H9C2, relative to DMSO vehicle
Excerpt: The bar graphs below represent the mean±SEM. Results were statistically different between c1 and DOX in both cases (p=0.002 and p=0.019), and more marginally so between c1 and DMSO (p=0.011 and p.=0.025), for Nrf2 and HO-1, respectively.

H9C2 cardiomyoblasts [1] = details: H9C2, 10 and 20 μM, 24 or 48 h; difference not significant at 48 h
Protocol: Cytotoxicity of DOX and prodrugs in H9C2 cardiomyoblasts. Media from cells exposed for 24 or 48 h to 10 or 20 µM of c1, c2, DOX or vehicle (DMSO, final concentration 0.1% in all samples) was centrifuged to remove cells and cell debris, and supernatants were assessed spectrophotometrically by lactose dehydrogenase (LDH) assay to evaluate release into the media as a measure of cytotoxicity (n=6 or more). *, p<0.05; **, p<0.01; ***, p<0.001; ****, p<0.0001.
Cytotoxicity of c1, c2 and DOX was evaluated by measuring the release of lactate dehydrogenase (LDH) into the culture medium over time.
H9C2 and 4T1 cells were plated at a density of 10,000 per well in 96-well plates. Twenty-four h after plating, cells were treated with 10 or 20 µM DOX (from 20 mM stock dissolved in DMSO, for 0.1% final DMSO) and were incubated for 24 or 48 h. The extracellular medium was centrifuged at 12,000×g for 5 min to pellet cellular debris, and the supernatants were assessed for release of lactate dehydrogenase (LDH) using a colorimetric activity assay (Invitrogen) as directed and spectral detection (Benchmark or BioRad microplate reader). Values were used to determine % cytotoxicity as described in the kit, using treatment with lysis buffer to release all LDH into the medium (defining 100% release) or cells without treatment (to define 0% release).

[2] = Time-dependent DOX release from prodrugs in presence of H2O2 (LCMS); assay type: physicochemical; details: prodrug 10 μM, H2O2 10 μM, ammonium bicarbonate buffer 0.1 M pH 7.4
Protocol: FIG. 1. Time-course for DOX release from prodrugs (10 μM) in ammonium bicarbonate buffer (0.1 M, pH 7.4) at room temperature and in the presence of H2O2 (10 μM). A calibration curve was used to determine the concentration of free DOX at each time point by LCMS. Plotted as the mean±standard error of the mean (SEM) from three independent experiments.
To confirm this reactivity, we incubated c1 (10 μM) with H2O2 (10 μM) at room temperature in ammonium bicarbonate buffer (0.1 M, pH 7.4). At various time points, an aliquot was removed and analyzed by LCMS. Using a calibration curve, we determined the percentage of released DOX over the course of two hours. […] For comparison, we also assessed the reactivity of c2 towards the same concentration of peroxides. Like c1, c2 also functioned as an H2O2-activated DOX prodrug, but with faster kinetics, as quantitative release of free DOX was realized within 60 min.
A stock solution of c1 (or c2, 10 mM) in DMSO and H2O2 (10 mM) in ammonium bicarbonate buffer (0.1M, pH 7.4) were prepared immediately prior to use. […] At various time points (0 min, 10 min, 35 min, 60 min, 80 min, 100 min, 120 min), a 1 mL (inject volume 60 μL) aliquot was removed and analyzed by LC-MS (using a C18 analytical column and eluting at 0.4 mL/min with a linear gradient (20-90% v/v) MeOH/H2O (0-2 min), followed by 90% v/v MeOH/H2O (2-19 min)). […]

H9C2 cardiomyoblasts [3] = assay: Uptake into H9C2 cardiomyoblasts by live-cell confocal microscopy; assay type: cell-based, rat; details: imaging over 18 h
Protocol: FIG. 4. Uptake of DOX and prodrugs c1 and c2 by H9C2 cardiomyoblasts. H9C2 cells cultures grown overnight on chambered coverslips in media with 10% serum were switched to Fluorobrite DMEM imaging media supplemented with 5% serum and prepared for live-cell imaging on a Zeiss LSM 880 confocal microscope, then 10 µM of c1, c2, or DOX was added and images were taken every 10 min (averaged every 30 min) for 18 h. Approximately 20 cells present in each field of view were averaged for each sample and time point; normalized and averaged data from two replicates each±SEM were included for c1 and DOX. An earlier independent trial yielded very similar results (Fig. S1).
Uptake of DOX and prodrugs into H9C2 cardiomyoblasts. Before comparing the biological effects of treatments by DOX and prodrugs, it was important to know their time dependence of accumulation into the H9C2 cardiomyoblasts under investigation. For this, confocal microscopy of live cells in culture was used to track in real time the accumulation of the fluorescent molecules into the cells, allowing direct comparisons between c1, c2 and Dox. […] Thus, any biological effects observed using c1 rather than DOX will not be due to limited cellular uptake.
To evaluate drug uptake, H9C2 cells were plated at a density of 20,000 per well on 24 well #1.5 polymer chambered coverslips (Ibidi) in media including 10% FBS and allowed to adhere for ~20 h. Prior to imaging analysis, the media was replaced with Fluorobrite DMEM imaging media (Gibco) supplemented with 5% FBS. To 1 mL of media in each well was added either vehicle (DMSO), or a 20 mM stock solution of c1, c2, or DOX to give final concentrations of 10 or 20 µM drug and 0.1% DMSO. […] DOX and the prodrugs were detected with excitation by a 458 nm laser at 0.3% and emission from 535-648 nm.
Each position consisted of a 3 slice z-stack that was compressed with a maximum intensity projection for analysis. […] The mean intensity for both channels was calculated, normalized, and then averaged to 30 min time points.

caspase-3 = assay: Caspase-3 cleavage immunoblot in H9C2 cells; details: H9C2, 10 or 20 μM, 24 h
Protocol: FIG. 6. […] H9C2 cells in culture were treated for 24 hr with c1, c2, DOX or vehicle (DMSO), then harvested into lysis buffer and immunoblotted for caspase-3. Data analyzed by ImageJ were used to assess the percent of the two bands present as the lower band.
We next evaluated apoptotic signaling through caspase-3 cleavage at 24 h to compare the experimental compounds.
To evaluate levels of caspase cleavage (using an antibody recognizing both cleaved and uncleaved, Cell Signaling, cat #9662), Nrf2 (antibody from Thermo Fisher, cat #PA5-27882), and HO-1 (antibody from Proteintech, cat #10701-1-AP), H9C2 cells were plated at a density of 450,000 per well in a 24-well plate, then treated 24 h later with 10 or 20 µM DOX and incubated another 24 h before harvesting. For some samples, 100 mM hydroxocobalamin (HO-Cbl) was added 5 min before drug treatment. Cells were harvested by removing media (and recovering any non-adherent cells by centrifugation for 5 min at 10,600×g, discarding the supernatant), and combining that with the 120 μL of lysis buffer added to each well. Lysis buffer [50 mM Tris-HCl at pH 8.0, with 100 mM NaCl, 100 µM diethylene triamine pentaacetic acid (DTPA), 20 mM β-glycerophosphate, 0.1% SDS, 0.5% Na Desoxycholate, and 0.5% Triton-X-100] was prepared by freshly adding protease and phosphatase inhibitors before use (1 mM PMSF, 10 μg/mL aprotinin, 1 mM Na3VO4, 10 mM NaF and 10 μg/mL leupeptin). Samples were further incubated on ice for 30 min, then centrifuged at high speed (20,800×g for 10 min) to remove cell debris, and supernatants were mixed with 5×SDS protein sample buffer for Western blot analysis following resolution of 40 μg per sample on 10% SDS-polyacrylamide gels. Protein concentrations of supernatants were determined using a BCA assay (Pierce). Antibodies were used at dilutions of 1:1000 (for HO-1 and caspase-3) or 1:3000 (for Nrf2).

Row | Compound | HO-1 expression (immunoblot) (Nrf2) | cytotoxicity (LDH release) (H9C2 cardiomyoblasts [1]) | time to quantitative release of free DOX [2] [min] | accumulation in cells compared with DOX (H9C2 cardiomyoblasts [3]) | caspase-3 cleavage (caspase-3)
1 | COc1cccc2c1C(=O)c1c(O)c3c(c(O)c1C2=O)C[C@@](O)(C(=O)CO)C[C@@H]3O[C@H]1C[C@H](N)[C@H](O)[C@H](C)O1 [DOX, Doxorubicin, reference compound] | completely suppressed both | more toxic than c1 |  |  | 
2 | COc1cccc2c1C(=O)c1c(O)c3c(c(O)c1C2=O)C[C@@](O)(C(=O)CO)C[C@@H]3O[C@H]1C[C@H](NC(=O)OCc2ccc(B3OC(C)(C)C(C)(C)O3)cc2)[C@H](O)[C@H](C)O1 [c2] |  | intermediate toxicity but more similar to DOX than c1 | ≤ 60 | as slow as or slower than Dox | neither c1 nor c2 at either 10 or 20 UM caused notable caspase-3 cleavage
